In patent EP4043444A1, “SUBSTITUTED ISOXAZOLINE DERIVATIVES” (priority 2021, dated 2022):
Like-named read-outs stand apart in the source and are kept apart here.

Key:
Type in all cases: in vivo
[1] = test system: Yellow Fever Mosquito (Aedes aegypti); assay: whole plant or invertebrate; conditions: 48 h, 2 days, in comparison with untreated controls, read-out: mortality (Larval mortality)
Protocol: For evaluating control of Yellow Fever Mosquito the test unit consisted of 96-well-microtiter plates containing 200µl of tap water per well and 5-15 freshly hatched A. aegypti larvae. The active compounds were formulated using a solution containing 75% (v/v) water and 25% (v/v) DMSO. Different concentrations of formulated compounds or mixtures were sprayed onto the insect diet at 2.5µl, using a custom-built micro atomizer, at two replications.
After application, microtiter plates were incubated at 28 + 1°C, 80 + 5 % RH for 2 days. Larval mortality was then visually assessed.

[2] = test system: Boll weevil (Anthonomus grandis); assay: Boll weevil control, 96-well microtiter plates with insect diet and eggs; conditions: Anthonomus grandis, 120 h, read-out: mortality (Egg and larval mortality)
Protocol: For evaluating control of boll weevil, the test unit consisted of 96-well-microtiter plates containing an insect diet and 5-10 A. grandis eggs.
The compounds were formulated using a solution containing 75% v/v water and 25% v/v DMSO. Different concentrations of formulated compounds were sprayed onto the insect diet at 5µl, using a custom-built micro atomizer, at two replications.
After application, microtiter plates were incubated at about 25 + 1°C and about 75 + 5 % relative humidity for 5 days. Egg and larval mortality were then visually assessed.

[3] = test system: Tobacco Budworm (Heliothis virescens); assay: Tobacco Budworm control, 96-well microtiter plates with insect diet and eggs; conditions: Heliothis virescens, 120 h, read-out: mortality (Egg and larval mortality)
Protocol: For evaluating control of Tobacco Budworm, the test unit consisted of 96-well-microtiter plates containing an insect diet and 15-25 H. virescens eggs. The compounds were formulated using a solution containing 75% v/v water and 25% v/v DMSO. Different concentrations of formulated compounds were sprayed onto the insect diet at 10µl, using a custom-built micro atomizer, at two replications. After application, microtiter plates were incubated at about 28 + 1°C and about 80 + 5 % relative humidity for 5 days. Egg and larval mortality was then visually assessed.

[4] = test system: Green Peach Aphid (Myzus persicae) (mixed life stages); assay: Green Peach Aphid control through systemic means, artificial diet under artificial membrane; conditions: Myzus persicae, 72 h, read-out: mortality (Aphid mortality)
Description: For evaluating control of Green Peach Aphid through systemic means the test unit consisted of 96-well-microtiter plates containing liquid artificial diet under an artificial membrane. The compounds were formulated using a solution containing 75% v/v water and 25% v/v DMSO. Different concentrations of formulated compounds were pipetted into the aphid diet, using a custom-built pipette, at two replications. After application, 5 - 8 adult aphids were placed on the artificial membrane inside the microtiter plate wells. The aphids were then allowed to suck on the treated aphid diet and incubated at about 23 + 1°C and about 50 + 5 % relative humidity for 3 days. Aphid mortality and fecundity was then visually assessed.

[5] = test system: Greenhouse Whitefly (Trialeurodes vaporarirorum); assay: Greenhouse Whitefly control, 96-well microtiter plates with eggplant leaf disk and eggs; conditions: foliar, 144 h, read-out: mortality (Mortality of hatched crawlers)
Protocol: For evaluating control of Greenhouse Whitefly, the test unit consisted of 96-well-microtiter plates containing a leaf disk of eggplant leaf disk with Whitefly eggs. The compounds or mixtures were formulated using a solution containing 75% water and 25% DMSO. Different concentrations of formulated were sprayed onto the […] at 2.5µl, using a custom-built micro atomizer, at two replications. After application, microtiter plates were incubated at 23 + 1°C, 65 + 5% RH for 6 days. Mortality of hatched crawlers was then visually assessed.

[6] = 2500ppm, sprayed onto insect diet, 5 days, in comparison with untreated controls

Measured: mortality at 2500 ppm

N#CC1(NC(=O)c2cc(NC3=NOC(c4cc(Cl)cc(Cl)c4)(C(F)(F)F)C3)ccc2Cl)CC1 (stereo not drawn) [I-3]
≥ 75%: [1] | [2] | [3]; [6] | [4]

O=C(Nc1ccc(F)c(NC(=O)C(F)F)c1F)c1cc(NC2=NOC(c3cc(Cl)cc(Cl)c3)(C(F)(F)F)C2)ccc1Cl (stereo not drawn) [I-5, 2-chloro-5-[[5-(3,5-dichlorophenyl)-5-(trifluoromethyl)-4H-isoxazol-3-yl]amino]-N-[3-[(2,2-difluoroacetyl)amino]-2,4-difluoro-phenyl]benzamide]
≥ 75%: [1] | [2] | [3]; [6] | [4]

O=C(NC1CN(S(=O)(=O)C(F)F)C1)c1cc(NC2=NOC(c3cc(Cl)c(F)c(Cl)c3)(C(F)(F)F)C2)ccc1Cl (stereo not drawn) [I-98, 2-chloro-5-[[5-(3,5-dichloro-4-fluoro-phenyl)-5-(trifluoromethyl)-4H-isoxazol-3-yl]amino]-N-[1-(difluoromethylsulfonyl)azetidin-3-yl]benzamide]
≥ 75%: [1] | [2] | [3] | [4]

O=C(Nc1ccc(F)c(NC(=O)C(F)(F)F)c1F)c1cc(NC2=NOC(c3cc(Cl)cc(Cl)c3)(C(F)(F)F)C2)ccc1Cl (stereo not drawn) [I-8]
≥ 75%: [1] | [2] | [3]; [6] | [4]

O=C(NCC(F)(F)F)c1cc(NC2=NOC(c3cc(Cl)cc(Cl)c3)(C(F)(F)F)C2)ccc1OC(F)F (stereo not drawn) [I-178]
≥ 75%: [1] | [2] | [3]; [6] | [4]

O=C(Nc1ccc(F)cc1F)c1cc(NC2=NOC(c3cc(Cl)cc(Cl)c3)(C(F)(F)F)C2)ccc1Cl (stereo not drawn) [I-2]
≥ 75%: [1] | [2] | [3]; [6] | [4]

O=C(Nc1ccc(F)cc1F)c1cc(NC2=NOC(c3cc(Cl)c(F)c(Cl)c3)(C(F)(F)F)C2)ccc1Cl (stereo not drawn) [I-14]
≥ 75%: [1] | [2] | [3]; [6] | [4]

O=C(Nc1ccc(F)cc1F)c1cc(NC2=NOC(c3cc(Cl)cc(Cl)c3)(C(F)(F)F)C2)ccc1OC(F)F (stereo not drawn) [I-157]
≥ 75%: [1] | [2] | [3]; [6] | [4]

CCN1OC[C@@H](NC(=O)c2cc(NC3=NOC(c4cc(Cl)cc(Cl)c4)(C(F)(F)F)C3)ccc2C(F)(F)F)C1=O (stereo partly drawn) [I-166]
≥ 75%: [1] | [2] | [3]; [6] | [4]

O=C(Nc1ccc(F)cc1F)c1cc(NC2=NOC(c3ccc(F)c(C(F)(F)F)c3)(C(F)(F)F)C2)ccc1Cl (stereo not drawn) [I-16]
≥ 75%: [1] | [2] | [3]; [6] | [4]

CCN1OC[C@@H](NC(=O)c2cc(NC3=NOC(c4cc(Cl)cc(Cl)c4)(C(F)(F)F)C3)ccc2F)C1=O (stereo partly drawn) [I-162]
≥ 75%: [1] | [2] | [3]; [6] | [4]

O=C(Nc1ccc(F)cc1F)c1cc(NC2=NOC(c3cccc(C(F)(F)F)c3)(C(F)(F)F)C2)ccc1Cl (stereo not drawn) [I-20, 2-chloro-N-(2,4-difluorophenyl)-5-[[5-(trifluoromethyl)-5-[3-(trifluoromethyl)phenyl]-4H-isoxazol-3-yl]amino]benzamide]
≥ 75%: [2] | [3]; [6] | [4] | [5]
